Assay results from US9326515B2, “Fungicidal 3-[(1,3-thiazol-4-ylmethoxyimino)(phenyl)methyl]-2-substituted-1,2,4-oxadiazol-5(2H)-one derivatives” (BAYER INTELLECTUAL PROPERTY GMBH, priority 2011, dated 2016).

Tested on: Phytophthora infestans
Experiment: not given
Assay type: in vivo
Settings: 100 ppm of active ingredient, spray on young tomato plants, inoculated one day after treatment, evaluated 7 days after inoculation
Compound `CCCCCCC(=O)Nc1nc(CON=C(c2ccccc2)c2nc(=O)on2C)cs1` [Example 1] has an Eff. % of 87%.
For `CC(Oc1ccccc1)C(=O)Nc1nc(CON=C(c2ccccc2)c2nc(=O)on2C)cs1` (centres unmarked) [Example 2], the Eff. % was 97%.
With `Cn1oc(=O)nc1C(=NOCc1csc(NC(=O)C(C)(C)C)n1)c1ccccc1` [Example 3] the Eff. % was 84%.
Compound `Cn1oc(=O)nc1C(=NOCc1csc(NC(=O)OC2CC3CCC2C3)n1)c1ccccc1` (centres unmarked) [Example 6] has an Eff. % of 90%.
Compound `CCCCC(CC)COC(=O)Nc1nc(CON=C(c2ccccc2)c2nc(=O)on2C)cs1` (centres unmarked) [Example 7] has an Eff. % of 85%.
For `Cn1oc(=O)nc1C(=NOCc1csc(NC(=O)COc2ccccc2)n1)c1ccccc1` [Example 8], the Eff. % was 95%.
`C#CCC(C)OC(=O)Nc1nc(CON=C(c2ccccc2)c2nc(=O)on2C)cs1` (centres unmarked) [Example 10] showed an Eff. % of 93%.
With `Cn1oc(=O)nc1C(=NOCc1csc(NC(=O)c2ccccc2)n1)c1ccccc1` [Example 15] the Eff. % was 92%.

Tested on: Plasmopara viticola
Experiment: Example I: in vivo preventive test on Plasmopara viticola (grapevines)
Settings: 10 ppm of active ingredient, spray on young grapevine plants, inoculated after spray coating dried, evaluated 6 days after inoculation
Experimental: To produce a suitable preparation of active compound, 1 part by weight of active compound is mixed with the stated amounts of solvent and emulsifier, and the concentrate is diluted with water to the desired concentration.
To test for preventive activity, young plants are sprayed with the preparation of active compound at the stated rate of application. After the spray coating has dried on, the plants are inoculated with an aqueous spore suspension of Plasmopara viticola and then remain for 1 day in an incubation cabinet at approximately 20° C. and a relative atmospheric humidity of 100%. The plant is subsequently placed for 4 days in a greenhouse at approximately 21° C. and a relative atmospheric humidity of approximately 90%. The plants are then misted and placed for 1 day in an incubation cabinet.
The test is evaluated 6 days after the inoculation. 0% means an efficacy which corresponds to that of the untreated control, while an efficacy of 100% means that no disease is observed.
`CCCCCCC(=O)Nc1nc(CON=C(c2ccccc2)c2nc(=O)on2C)cs1` [Example 1] showed an Eff. % of 90%.
With `CC(Oc1ccccc1)C(=O)Nc1nc(CON=C(c2ccccc2)c2nc(=O)on2C)cs1` (centres unmarked) [Example 2] the Eff. % was 97%.
Work on `Cn1oc(=O)nc1C(=NOCc1csc(NC(=O)COc2ccccc2)n1)c1ccccc1` [Example 8] yielded an Eff. % of 97%.
Compound `C#CCC(C)OC(=O)Nc1nc(CON=C(c2ccccc2)c2nc(=O)on2C)cs1` (centres unmarked) [Example 10] has an Eff. % of 88%.

Tested on: not given
Experiment: not given
Settings: pH 2.7
Work on `CCCCC(C)C(=O)Nc1nc(CO/N=C(/c2ccccc2)c2nc(=O)on2C)cs1` (racemic) [Example 42] yielded a LogP of 3.42.
Compound `CC(C)C(C)OC(=O)Nc1nc(CO/N=C(/c2ccccc2)c2nc(=O)on2C)cs1` (racemic) [Example 46] has a LogP of 3.35.
Compound `CC(C(=O)Nc1nc(CO/N=C(/c2ccccc2)c2nc(=O)on2C)cs1)c1ccccc1` (racemic) [Example 49] has a LogP of 3.15.
Compound `CC(OC(=O)Nc1nc(CO/N=C(/c2ccccc2)c2nc(=O)on2C)cs1)C1CCCCC1` (racemic) [Example 56] has a LogP of 4.31.
Work on `CCCCCCC(=O)Nc1nc(CON=C(c2ccccc2)c2nc(=O)on2C)cs1` [Example 1] yielded a LogP of 3.55.
In the case of `CC(Oc1ccccc1)C(=O)Nc1nc(CON=C(c2ccccc2)c2nc(=O)on2C)cs1` (centres unmarked) [Example 2], the LogP is reported as 3.15.
In the case of `Cn1oc(=O)nc1C(=NOCc1csc(NC(=O)C(C)(C)C)n1)c1ccccc1` [Example 3], the LogP is reported as 2.84.
`Cn1oc(=O)nc1C(=NOCc1csc(NC(=O)Oc2ccc(F)cc2)n1)c1ccccc1` [Example 5] showed a LogP of 3.02.
Work on `Cn1oc(=O)nc1C(=NOCc1csc(NC(=O)OC2CC3CCC2C3)n1)c1ccccc1` (centres unmarked) [Example 6] yielded a LogP of 3.60.
With `CCCCC(CC)COC(=O)Nc1nc(CON=C(c2ccccc2)c2nc(=O)on2C)cs1` (centres unmarked) [Example 7] the LogP was 4.56.
In the case of `Cn1oc(=O)nc1C(=NOCc1csc(NC(=O)COc2ccccc2)n1)c1ccccc1` [Example 8], the LogP is reported as 2.98.
Work on `C#CCC(C)OC(=O)Nc1nc(CON=C(c2ccccc2)c2nc(=O)on2C)cs1` (centres unmarked) [Example 10] yielded a LogP of 2.80.
Compound `Cn1oc(=O)nc1C(=NOCc1csc(NC(=O)c2ccccc2)n1)c1ccccc1` [Example 15] has a LogP of 2.88.
Work on `COc1cccc(/C(=N/OCc2csc(NC(=O)C(C)(C)Oc3ccccc3)n2)c2nc(=O)on2C)c1` [Example 36] yielded a LogP of 3.63.
Compound `CCn1oc(=O)nc1/C(=N\OCc1csc(NC(=O)OCCc2ccccc2)n1)c1ccccc1` [Example 37] has a LogP of 3.55.
`CCn1oc(=O)nc1/C(=N\OCc1csc(NC(=O)COc2ccccc2)n1)c1ccccc1` [Example 38] showed a LogP of 3.17.
In the case of `COCCn1oc(=O)nc1/C(=N\OCc1csc(NC(=O)OCCc2ccccc2)n1)c1ccccc1` [Example 39], the LogP is reported as 3.55.
`C#CCCCC(=O)Nc1nc(CO/N=C(/c2ccccc2)c2nc(=O)on2C)cs1` [Example 40] gave a LogP of 2.54.
`Cn1oc(=O)nc1/C(=N\OCc1csc(NC(=O)CCC2CCCCC2)n1)c1ccccc1` [Example 41] gave a LogP of 3.92.
With `Cn1oc(=O)nc1/C(=N\OCc1csc(NC(=O)CCC2CCCC2)n1)c1ccccc1` [Example 43] the LogP was 3.58.
With `Cn1oc(=O)nc1/C(=N\OCc1csc(NC(=O)OCCC2CCCCC2)n1)c1ccccc1` [Example 45] the LogP was 4.21.
With `CC#CCOC(=O)Nc1nc(CO/N=C(/c2ccccc2)c2nc(=O)on2C)cs1` [Example 47] the LogP was 2.66.
For `Cc1ccc(C(=O)Nc2nc(CO/N=C(/c3ccccc3)c3nc(=O)on3C)cs2)cc1` [Example 48], the LogP was 3.17.
In the case of `CC(C)[C@@H]1CC[C@@H](C)C[C@H]1OC(=O)Nc1nc(CO/N=C(/c2ccccc2)c2nc(=O)on2C)cs1` [Example 50], the LogP is reported as 4.91.
Work on `Cn1oc(=O)nc1/C(=N\OCc1csc(NC(=O)OC(C)(C)C(Cl)(Cl)Cl)n1)c1ccccc1` [Example 51] yielded a LogP of 3.96.
Work on `Cn1oc(=O)nc1/C(=N\OCc1csc(NC(=O)OCCC2CCCC2)n1)c1ccccc1` [Example 52] yielded a LogP of 3.96.
With `Cn1oc(=O)nc1/C(=N\OCc1csc(NC(=O)CC2CCCC2)n1)c1ccccc1` [Example 53] the LogP was 3.19.
`CC#CCCOC(=O)Nc1nc(CO/N=C(/c2ccccc2)c2nc(=O)on2C)cs1` [Example 54] gave a LogP of 2.80.
Compound `CC(C)CCOC(=O)Nc1nc(CO/N=C(/c2ccccc2)c2nc(=O)on2C)cs1` [Example 55] has a LogP of 3.44.
Work on `Cn1oc(=O)nc1/C(=N\OCc1csc(NC(=O)CCc2ccccc2)n1)c1ccccc1` [Example 57] yielded a LogP of 3.09.
With `Cn1oc(=O)nc1/C(=N\OCc1csc(NC(=O)C2CCCC2)n1)c1ccccc1` [Example 58] the LogP was 2.88.
`CCCCOC(=O)Nc1nc(CO/N=C(/c2ccccc2)c2nc(=O)on2C)cs1` [Example 59] showed a LogP of 3.13.
For `CCCCC(=O)Nc1nc(CO/N=C(/c2ccccc2)c2nc(=O)on2C)cs1` [Example 60], the LogP was 2.80.
In the case of `Cn1oc(=O)nc1/C(=N\OCc1csc(NC(=O)OCC(C)(C)C)n1)c1ccccc1` [Example 61], the LogP is reported as 3.39.
`CC(C)CC(=O)Nc1nc(CO/N=C(/c2ccccc2)c2nc(=O)on2C)cs1` [Example 62] gave a LogP of 2.75.
Compound `Cn1oc(=O)nc1C(=NOCc1csc(NC(=O)OCC2CCCCC2)n1)c1ccccc1` [Example 63] has a LogP of 3.92.
`C=CCCCCOC(=O)Nc1nc(CON=C(c2ccccc2)c2nc(=O)on2C)cs1` [Example 64] showed a LogP of 3.51.
Compound `Cn1oc(=O)nc1C(=NOCc1csc(NC(=O)Cc2ccccc2)n1)c1ccccc1` [Example 65] has a LogP of 2.82.
`Cn1oc(=O)nc1C(=NOCc1csc(NC(=O)OCCCC2CCCC2)n1)c1ccccc1` [Example 66] showed a LogP of 4.36.
For `C#CCOC(=O)Nc1nc(CON=C(c2ccccc2)c2nc(=O)on2C)cs1` [Example 67], the LogP was 2.49.
`Cc1cccc(C(=O)Nc2nc(CON=C(c3ccccc3)c3nc(=O)on3C)cs2)c1` [Example 68] showed a LogP of 3.19.
For `CCCCCOC(=O)Nc1nc(CON=C(c2ccccc2)c2nc(=O)on2C)cs1` [Example 69], the LogP was 3.51.
`COc1ccc(CC(=O)Nc2nc(CON=C(c3ccccc3)c3nc(=O)on3C)cs2)cc1` [Example 70] showed a LogP of 2.80.
`COc1cccc(C(=O)Nc2nc(CON=C(c3ccccc3)c3nc(=O)on3C)cs2)c1` [Example 71] showed a LogP of 2.98.
For `CCC#CCOC(=O)Nc1nc(CON=C(c2ccccc2)c2nc(=O)on2C)cs1` [Example 72], the LogP was 2.98.
Work on `Cn1oc(=O)nc1C(=NOCc1csc(NC(=O)OCC#Cc2ccccc2)n1)c1ccccc1` [Example 73] yielded a LogP of 3.44.
For `Cn1oc(=O)nc1C(=NOCc1csc(NC(=O)C2(C)CCCCC2)n1)c1ccccc1` [Example 74], the LogP was 3.58.
Compound `Cn1oc(=O)nc1C(=NOCc1csc(NC(=O)Cc2cccs2)n1)c1ccccc1` [Example 75] has a LogP of 2.71.
Compound `C=CCC(C)OC(=O)Nc1nc(CON=C(c2ccccc2)c2nc(=O)on2C)cs1` (centres unmarked) [Example 76] has a LogP of 3.15.
`CC=CCCCOC(=O)Nc1nc(CON=C(c2ccccc2)c2nc(=O)on2C)cs1` [Example 77] gave a LogP of 3.55.
In the case of `Cn1oc(=O)nc1C(=NOCc1csc(NC(=O)OCCC2CC2)n1)c1ccccc1` [Example 78], the LogP is reported as 3.15.
With `Cn1oc(=O)nc1C(=NOCc1csc(NC(=O)OCCCC2CC2)n1)c1ccccc1` [Example 79] the LogP was 3.51.
`CC(CC1CC1)OC(=O)Nc1nc(CON=C(c2ccccc2)c2nc(=O)on2C)cs1` (centres unmarked) [Example 80] showed a LogP of 3.42.
`CC#CCC(C)OC(=O)Nc1nc(CON=C(c2ccccc2)c2nc(=O)on2C)cs1` (centres unmarked) [Example 81] showed a LogP of 3.06.
For `Cn1oc(=O)nc1C(=NOCc1csc(NC(=O)OCCCCC(F)(F)F)n1)c1ccccc1` [Example 82], the LogP was 3.27.
`Cn1oc(=O)nc1C(=NOCc1csc(NC(=O)OCCCC2CCCCC2)n1)c1ccccc1` [Example 83] gave a LogP of 4.71.
`COc1cccc(C(=NOCc2csc(NC(=O)COc3ccccc3)n2)c2nc(=O)on2C)c1` [Example 84] showed a LogP of 3.02.
Compound `COc1cccc(C(=NOCc2csc(NC(=O)OCCc3ccccc3)n2)c2nc(=O)on2C)c1` [Example 85] has a LogP of 3.39.
For `COc1cccc(C(=NOCc2csc(NC(=O)CC3CCCC3)n2)c2nc(=O)on2C)c1` [Example 86], the LogP was 3.25.
In the case of `CCC(C)(C)C(=O)Nc1nc(CON=C(c2ccccc2)c2nc(=O)on2C)cs1` [Example 87], the LogP is reported as 3.13.
`Cn1oc(=O)nc1C(=NOCc1csc(NC(=O)OCC2CC2)n1)c1ccccc1` [Example 88] showed a LogP of 2.84.
For `Cn1oc(=O)nc1C(=NOCc1csc(NC(=O)c2csc3ccccc23)n1)c1ccccc1` [Example 89], the LogP was 3.57.
In the case of `Cn1oc(=O)nc1C(=NOCc1csc(NC(=O)C2CCCCC2)n1)c1ccccc1` [Example 90], the LogP is reported as 3.19.
Compound `Cn1oc(=O)nc1C(=NOCc1csc(NC(=O)c2ccc(F)cc2)n1)c1ccccc1` [Example 91] has a LogP of 3.00.
Compound `CC(OC(=O)Nc1nc(CON=C(c2ccccc2)c2nc(=O)on2C)cs1)C(C)(C)C` (centres unmarked) [Example 92] has a LogP of 3.65.
`Cn1oc(=O)nc1/C(=N\OCc1csc(NC(=O)OCCCCl)n1)c1ccccc1` [Example 93] showed a LogP of 2.80.
With `C=C(C)COC(=O)Nc1nc(CO/N=C(/c2ccccc2)c2nc(=O)on2C)cs1` [Example 94] the LogP was 2.92.
`CC(OC(=O)Nc1nc(CO/N=C(/c2ccccc2)c2nc(=O)on2C)cs1)C1CCCC1` (centres unmarked) [Example 95] gave a LogP of 3.85.
Work on `Cn1oc(=O)nc1/C(=N\OCc1csc(NC(=O)OCc2ccccc2)n1)c1ccccc1` [Example 96] yielded a LogP of 3.17.
Compound `COc1ccc(OC(=O)Nc2nc(CO/N=C(/c3ccccc3)c3nc(=O)on3C)cs2)cc1` [Example 97] has a LogP of 2.94.
Work on `CCN(O)C(=N)/C(=N\OCc1csc(NC(=O)COc2ccccc2)n1)c1ccccc1` [Example V-1] yielded a LogP of 2.42.
